Some test systems named below: IGROV1 ovarian; MCF7 breast; EKVX NSCLC; PC-3 prostate; SF-268 CNS; HCT-116 colon; HCT-15 colon; ACHN renal; SF-295 CNS; SK-MEL-5 melanoma.
Experiment in all cases: inhibition of tumour cell growth, NCI panel, 48 h

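Five compound concentrations were applied to cells in 96-well plates for 48 hours; endpoints were derived by simple linear interpolation of the resulting dose-response curve. TGI marks complete inhibition of growth.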 A value given as a limit tells only on which side of the number the result lay.

As for `c1cn(C23C4C5C6C4C2C6C53)cn1` (stereo not given), the TGI with IGROV1 ovarian, in the assay with MCF7 breast, with EKVX NSCLC, with PC-3 prostate, in the assay with SF-268 CNS and in the assay with HCT-116 colon was > 100 µM throughout. Moreover, the TGI with HCT-15 colon, in the assay with ACHN renal, in the assay on SF-295 CNS and in the assay on SK-MEL-5 melanoma was > 100 µM each time.
As for `COc1ccc(-n2c(=O)n(C)c(=O)n2-c2ccc(OC)cc2)cc1`, the TGI in the assay with IGROV1 ovarian, in the assay on MCF7 breast, in the assay on EKVX NSCLC, with PC-3 prostate, in the assay on SF-268 CNS and in the assay on HCT-116 colon was > 100 µM each time. In addition, the TGI in the assay with HCT-15 colon, in the assay on ACHN renal, in the assay on SF-295 CNS and with SK-MEL-5 melanoma was > 100 µM throughout.
Consider `c1ccc2c(c1)CCc1c-2n(CCN2CCOCC2)c2ccccc12`, for which the TGI in the assay with IGROV1 ovarian, in the assay on MCF7 breast, in the assay on EKVX NSCLC, with PC-3 prostate, with SF-268 CNS and in the assay on HCT-116 colon was > 100 µM each time. Further, the TGI was > 100 µM with HCT-15 colon, > 100 µM in the assay with ACHN renal, > 100 µM in the assay with SF-295 CNS and 51.2 µM in the assay with SK-MEL-5 melanoma.
Take `CC(C)(Oc1ccc(Cl)cc1)C(=O)N(C(=O)N1CCC(c2ccccc2)CC1)c1ccccc1`: the TGI in the assay with IGROV1 ovarian, in the assay with MCF7 breast, in the assay on EKVX NSCLC, with PC-3 prostate, in the assay with SF-268 CNS and in the assay with HCT-116 colon was > 100 µM throughout. In addition, the TGI is > 100 µM with HCT-15 colon, > 100 µM in the assay on ACHN renal, > 100 µM in the assay with SF-295 CNS and 65.8 µM with SK-MEL-5 melanoma.
With `CCOC(=O)c1cc2c(C(=O)c3ccc([N+](=O)[O-])cc3)c(C(C)=O)ccc2[nH]1`, the TGI in the assay with IGROV1 ovarian is > 100 µM; with MCF7 breast it was > 100 µM; in the assay on EKVX NSCLC it was > 100 µM; with PC-3 prostate it was > 100 µM; in the assay with SF-268 CNS, 38.9 µM; in the assay on HCT-116 colon, > 100 µM. Besides, the TGI with HCT-15 colon, in the assay on ACHN renal, in the assay with SF-295 CNS and with SK-MEL-5 melanoma was > 100 µM throughout.
Consider `O=C1c2cc3c(cc2CC12Cc1ccc4c(c1C2=O)CCCC4)CCCC3` (stereo not given), for which the TGI in the assay on IGROV1 ovarian, in the assay on MCF7 breast, in the assay with EKVX NSCLC, in the assay on PC-3 prostate, in the assay with SF-268 CNS and in the assay with HCT-116 colon was > 100 µM in each case. Also, the TGI in the assay on HCT-15 colon, in the assay with ACHN renal, with SF-295 CNS and in the assay with SK-MEL-5 melanoma was > 100 µM throughout.
As for `N#Cc1ccccc1-c1nc2c3c(c(N)ccc3n1)C(=O)c1ccccc1-2`, the TGI in the assay on IGROV1 ovarian, in the assay on MCF7 breast, in the assay with EKVX NSCLC, with PC-3 prostate, with SF-268 CNS and in the assay on HCT-116 colon was > 100 µM each time. For the same compound, the TGI is > 100 µM with HCT-15 colon, > 100 µM in the assay with ACHN renal, > 100 µM in the assay on SF-295 CNS and 74.5 µM in the assay with SK-MEL-5 melanoma.
Regarding `COC1OC2COC1(OC)C1OC(C)(C)OC21` (stereo not given), the TGI with IGROV1 ovarian, in the assay with MCF7 breast, in the assay with EKVX NSCLC, in the assay on PC-3 prostate, with SF-268 CNS and with HCT-116 colon was > 100 µM each time. Also, the TGI in the assay with HCT-15 colon, in the assay with ACHN renal, with SF-295 CNS and in the assay with SK-MEL-5 melanoma was > 100 µM in each case.
Consider `CC1(O)CC(=O)c2c(cc3ccc(-c4c5c(c(O)c6c(O)cccc46)C(=O)CC(C)(O)C5)c(O)c3c2O)C1` (stereo not given), for which the TGI is 3.43 µM in the assay on IGROV1 ovarian; 1.7 µM in the assay on MCF7 breast; 4.35 µM in the assay with EKVX NSCLC; 11.2 µM with PC-3 prostate; 1.81 µM in the assay on SF-268 CNS; 3.86 µM with HCT-116 colon. Further, the TGI was found to be 4.08 µM in the assay with HCT-15 colon, 11 µM in the assay with ACHN renal, 0.874 µM with SF-295 CNS and 0.495 µM with SK-MEL-5 melanoma.
Consider `Cc1c(NC(=O)CSC(=S)N2CCN(Cc3ccccc3)CC2)c(=O)n(-c2ccccc2)n1C`, for which the TGI in the assay on IGROV1 ovarian, with MCF7 breast, in the assay with EKVX NSCLC, in the assay on PC-3 prostate, with SF-268 CNS and in the assay on HCT-116 colon was > 100 µM each time. In addition, the TGI in the assay with HCT-15 colon, in the assay with ACHN renal, in the assay with SF-295 CNS and in the assay on SK-MEL-5 melanoma was > 100 µM throughout.
As for `O=c1c2cc(I)ccc2nc(-c2cccs2)n1-c1ccc(O)cc1`, the TGI in the assay on IGROV1 ovarian was 46.7 µM; in the assay on MCF7 breast, 32.8 µM; in the assay on EKVX NSCLC, 33.4 µM; with PC-3 prostate it was 22.5 µM; with SF-268 CNS, 32.8 µM; in the assay with HCT-116 colon, 27.4 µM. In addition, the TGI in the assay with HCT-15 colon is 26.1 µM; in the assay with ACHN renal, 22.5 µM; in the assay with SF-295 CNS, 27.4 µM; in the assay with SK-MEL-5 melanoma it was 24.3 µM.
For the compound `O=C(O)c1ccn(-c2cccc(-n3ccc(C(=O)O)n3)n2)n1`, the TGI in the assay on IGROV1 ovarian, in the assay on MCF7 breast, in the assay on EKVX NSCLC, in the assay on PC-3 prostate, with SF-268 CNS and in the assay with HCT-116 colon was > 100 µM each time. Moreover, the TGI in the assay on HCT-15 colon, in the assay on ACHN renal, in the assay on SF-295 CNS and in the assay with SK-MEL-5 melanoma was > 100 µM throughout.
As to `CCOc1cc(C2CC(c3ccc(NS(=O)(=O)c4cc([N+](=O)[O-])ccc4C)cc3)=NN2c2ccc([N+](=O)[O-])cc2[N+](=O)[O-])ccc1O` (stereo not given), the TGI in the assay with IGROV1 ovarian worked out at 46.2 µM; in the assay on MCF7 breast, 42.1 µM; in the assay with EKVX NSCLC it was 22 µM; in the assay with PC-3 prostate it was 64.7 µM; with SF-268 CNS, 43.9 µM; with HCT-116 colon, 26.1 µM. The TGI is > 100 µM in the assay on HCT-15 colon, 21.7 µM in the assay on ACHN renal, 41.1 µM with SF-295 CNS and 23.1 µM with SK-MEL-5 melanoma.
As for `COc1cc(/C=C2/C[C@H]3[C@@H]4CC=C5C[C@@H](OC(C)=O)CC[C@]5(C)[C@H]4CC[C@]3(C)NC2=O)cc(OC)c1OC`, the TGI with IGROV1 ovarian was 69.6 µM; in the assay with MCF7 breast, > 100 µM; in the assay on EKVX NSCLC, 68.3 µM; with PC-3 prostate it was 44.3 µM; in the assay with SF-268 CNS it was 76 µM; in the assay with HCT-116 colon, > 100 µM. Also, the TGI with HCT-15 colon was > 100 µM; in the assay on ACHN renal, 44.6 µM; in the assay on SF-295 CNS it was 65.9 µM; in the assay with SK-MEL-5 melanoma it was > 100 µM.
As for `CC1=NN(c2nc(N)nc(/C(C#N)=C/c3cccn3-c3cc(Cl)cc(Cl)c3)n2)C(C)(C)C1`, the TGI in the assay with IGROV1 ovarian, in the assay with MCF7 breast, with EKVX NSCLC, in the assay on PC-3 prostate, in the assay on SF-268 CNS and in the assay with HCT-116 colon was > 100 µM each time. The TGI in the assay with HCT-15 colon, with ACHN renal, in the assay on SF-295 CNS and with SK-MEL-5 melanoma was > 100 µM in each case.

For the origin of these results see PubChem BioAssay (NCI).
